For 25 compounds, IC50, T1/2 and inhibition results are on record in ChEMBL document CHEMBL3774370, “Structure-activity relationships (SAR) and structure-kinetic relationships (SKR) of sulphone-based CRTh2 antagonists” (Eur J Med Chem, 2016).

Experiment [1] has as its target T1, Prostaglandin D2 receptor 2 (Homo sapiens, UniProt Q9Y5Y4).
T1 sequence (Q9Y5Y4 whole entry): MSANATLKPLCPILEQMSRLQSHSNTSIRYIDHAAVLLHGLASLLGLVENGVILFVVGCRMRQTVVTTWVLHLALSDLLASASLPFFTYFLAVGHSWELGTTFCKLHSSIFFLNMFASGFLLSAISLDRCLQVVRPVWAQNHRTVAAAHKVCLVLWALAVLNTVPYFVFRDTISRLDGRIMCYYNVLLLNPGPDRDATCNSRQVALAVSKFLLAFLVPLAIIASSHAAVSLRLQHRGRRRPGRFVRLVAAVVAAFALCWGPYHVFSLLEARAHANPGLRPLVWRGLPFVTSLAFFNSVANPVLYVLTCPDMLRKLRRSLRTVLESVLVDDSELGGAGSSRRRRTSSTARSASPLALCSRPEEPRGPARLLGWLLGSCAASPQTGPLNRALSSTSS
In words: Displacement of [35S]-GTPgammaS from CRTH2 receptor (unknown origin) expressed in CHOK1 cell membrane after 1 hr by liquid scintillation counter. Format: cell membranes, CHO-K1. In general terms: Loss of bound radioactivity is the signal in a displacement assay; it reports binding, not function.

The subject of experiment [2] is Prostaglandin D2 receptor 2, CRTh2 (Homo sapiens). Description: Antagonist activity at CRTH2 receptor (unknown origin) expressed in CHOK1 cells assessed as dissociation half life measured up to 25 hrs by GTPgammaS assay. The settings on record: CHO-K1.
The target of experiment [3] is T2, Prostaglandin D2 receptor 2 (Homo sapiens) (UniProt Q9Y5Y4).
T2 sequence (whole entry): T1 sequence (Q9Y5Y4 whole entry)
Description: Displacement of [35S]-GTPgammaS from CRTH2 receptor (unknown origin) expressed in CHOK1 cell membrane at 10 uM after 1 hr by liquid scintillation counter. Format: cell membranes. The settings on record: CHO-K1.

One may read the IC50 as the midpoint of a concentration-inhibition curve. As a reminder, the inhibition is the relative decrease from the control value, in per cent. Higher therefore signals strong suppression.

`Cc1c(Cc2ccccc2S(=O)(=O)c2ccccc2)c(-c2ccccc2)nn1CC(=O)O` came in with an IC50 in experiment [1] of 85 nM.

For `Cc1c(CC(=O)O)c(-c2ccccc2)nn1Cc1ccccc1S(=O)(=O)c1ccccc1`, in experiment [2], the T1/2 came to 0.1 h.

Compound `COc1ccc(S(=O)(=O)c2ccc(F)cc2)c(Cc2c3c(n(CC(=O)O)c2C)CCCC3=O)c1` gave an IC50 in experiment [1] of 2 nM. The T1/2 in experiment [2] came to 21 h.

`COc1ccc(S(=O)(=O)c2ccc(F)cc2)c(Cc2c(C)c(CC(=O)O)c3ccncn23)c1` came in with a concentration for half-maximal inhibition (IC50) in experiment [1] of 5 nM.

The compound `O=C(O)Cc1cc(Cl)c(=O)n(Cc2ccccc2S(=O)(=O)c2ccccc2)c1` displayed an IC50 in experiment [1] of 860 nM.

In experiment [1], `Cc1c(CC(=O)O)c2ccncn2c1Cc1ccccc1S(=O)(=O)c1ccccc1` displayed an IC50 of 28 nM.

`O=C(O)Cc1cc(Cc2ccccc2S(=O)(=O)c2ccccc2)c2nc(C(F)(F)F)ccn12` yielded an IC50 in experiment [1] of 47 nM. The T1/2 in experiment [2] was 0.05 h.

The compound `Cc1c(Cc2ccccc2S(=O)(=O)c2ccc(F)cc2)c2c(n1CC(=O)O)CCCC2` came in with an IC50 in experiment [1] of 104 nM.

As for `O=C(O)CN1c2cccnc2N(Cc2ccccc2S(=O)(=O)c2ccccc2)S1(=O)=O`, the IC50 in experiment [1] turned out to be 1600 nM.

Compound `O=C(O)Cn1c(-c2ccccc2)nn(Cc2ccccc2S(=O)(=O)c2ccccc2)c1=O` came in with an IC50 in experiment [1] of 2400 nM.

For the compound `Cc1ccc2c(CC(=O)O)c(C)n(Cc3ccccc3S(=O)(=O)c3ccccc3)c2n1`, the IC50 in experiment [1] stood at 14 nM. Moreover, in experiment [2], the T1/2 turned out to be 1.3 h.

In experiment [1], `O=C(O)Cc1nc(Cc2ccccc2S(=O)(=O)c2ccccc2)n2ccccc12` displayed an IC50 of 3000 nM.

On to `O=C(O)Cn1nc(Cc2ccccc2S(=O)(=O)c2ccccc2)c2ccccc2c1=O`, for which the inhibition in experiment [3] is less than 25%.

`O=C(O)Cc1cccn(Cc2ccccc2S(=O)(=O)c2ccccc2)c1=O` came in with an inhibition in experiment [3] of less than 25%.

Compound `O=C(O)Cc1ccc(=O)n(Cc2ccccc2S(=O)(=O)c2ccccc2)c1` displayed a half-maximal inhibitory concentration (IC50) in experiment [1] of 10000 nM.

As for `Cc1c(Cc2ccccc2S(=O)(=O)c2ccccc2)c(=O)n(-c2ccccc2)n1CC(=O)O`, the IC50 in experiment [1] came to 970 nM.

In experiment [1], `Cc1c(Cc2ccccc2S(=O)(=O)c2ccc(F)cc2)c2c(n1CC(=O)O)CCCC2=O` came in with an IC50 of 2 nM. In experiment [2], the T1/2 came out at 21 h.

In experiment [1], `COc1ccc(S(=O)(=O)c2ccc(F)cc2)c(Cn2cc(CC(=O)O)c3ccc(C)nc32)c1` had an IC50 of 18 nM.

Compound `Cc1c(Cc2ccccc2S(=O)(=O)c2ccc(F)cc2)nc(-c2ccccc2)n1CC(=O)O` returned an IC50 in experiment [1] of 8 nM. Moreover, the T1/2 in experiment [2] was determined as 0.6 h.

In experiment [1], `O=C(O)Cc1nn(Cc2ccccc2S(=O)(=O)c2ccccc2)c(=O)c2ccccc12` returned an IC50 of 65 nM. Also, the T1/2 in experiment [2] amounted to 0.04 h.

`O=C(O)Cn1nc(-c2ccccc2)n(Cc2ccccc2S(=O)(=O)c2ccccc2)c1=O`: the inhibition in experiment [3] was less than 25%.

For `O=C(O)Cn1nc(-c2ccccc2)cc(Cc2ccccc2S(=O)(=O)c2ccccc2)c1=O`, the inhibition in experiment [3] was less than 25%.

For `COc1ccc(S(=O)(=O)c2ccc(F)cc2)c(Cn2c(C)c(CC(=O)O)c3ccc(C)nc32)c1`, the IC50 in experiment [1] is 4 nM. In experiment [2], the T1/2 came out at 13 h.

Compound `Cc1c(-c2ccccc2)n(CC(=O)O)c(=O)n1Cc1ccccc1S(=O)(=O)c1ccc(F)cc1` registered an IC50 in experiment [1] of 10000 nM.

For `Cc1c(Cc2ccccc2S(=O)(=O)c2ccccc2)c2cc(F)ccc2n1CC(=O)O`, the half-inhibitory concentration (IC50) in experiment [1] worked out at 14 nM. For the same compound, the T1/2 in experiment [2] came out at 1.3 h.
